{"source": "patent US20210382037A1", "about": "“IDENTIFICATION AND USE OF CYTOTOXIC T LYMPHOCYTE (CTL) ANTIGEN-SPECIFIC TARGET CELL KILLING ENHANCER AGENTS” (DANA-FARBER CANCER INSTITUTE, INC., priority 2017, published 2021)", "key": {"[1]": {"test_system": "ID8-lucOS cells (OVA-expressing ID8 target cells) co-cultured with OT-I CD8+ T cells", "assay": "OT-I CTL assay, high-throughput compound screen and dose-response validation", "assay_type": "cell-based, mouse", "settings": "for effect on OT-I T cell-mediated target cell lysis (normalized firefly/renilla luciferase ratio relative to DMSO): pilot screen, 1 μM, duplicate plates; for effect on OT-I T cell-mediated target cell lysis (normalized firefly/renilla luciferase ratio relative to DMSO) / effect on OT-I T cell killing of ID8-lucOS target cells, dose-response validation: 48 hr; for effect on OT-I T cell killing of ID8-lucOS target cells, dose-response validation: dose-response curves", "description": "10,000 ID8-lucOS and 10,000 ID8-rluc cells were plated in 1004, of cell culture media (DMEM+10% FBS+pen/strep) in solid white, flat-bottomed, tissue culture-treated 96-well plates (Thermo Fisher, Waltham, Mass.). Overnight-stimulated OT-I CD8^+ T cells were then added at the designated Effector:Target ratios with or without compounds in a total volume of 200 μL. Plates were incubated for 48 hr at 37° C. and 5% CO2. After 48 hr timepoint, 1004, of media was removed prior to dual-luciferase assay. Briefly: 504, of homemade Dual-Glo® luciferase buffer (Lu et al. Science 343: 305-309) was added to wells and incubated for 30 min before analysis of Firefly luminescence; then 504, of Dual-Glo® Stop & Glo® buffer was added, plates were incubated for 30 min, then analyzed for Renilla luminescence. An EnSpire plate reader (PerkinElmer, Waltham, Mass.) was used for quantification of luminescence. 203 compounds (listed above; details for LINCS kinase library can be found at lincs.hms.harvard.edu/db/sm/) were screened in high-throughput at 1 μM final concentration in duplicate, in 96-well plates in a first set that contained both OT-I CTLs and ID8 target cells and in a second set that contained ID8 target cells only. No compounds were placed in edge wells and all plates contained multiple DMSO control cells. Hits were calculated based on ΔΔCt method whereby ΔΔCt=(FLucDMSO/RLucDMSO)/(FLucCompound/RLucCompound) where values >1 were assessed as having augmented CTL killing, values ˜1 were assessed as having negligible immunomodulatory effect, and values <1 were assessed as having inhibited CTL killing. Hits from the high-throughput screen were validated with dose response curves using the indicated drug concentrations.\nFor development of the OT-I IO assay, the ID8 murine serous ovarian carcinoma cell line was utilized due to its constitutive expression of MHC class-I, MHC haplotype compatibility with C57BL/6J mice, and dramatic IFN-γ-induced upregulation of PD-L1 (FIG. 10A and FIG. 10B). ID8s were transduced with pLVX vectors to express either firefly luciferase and OVA model antigen (“lucOS”) or renilla luciferase and no model antigen (“rluc”) (FIG. 2A). Target ID8 cell lines were mixed at a 1:1 ratio and co-cultured with CD8+ T cells isolated from the spleens of OT-I TCR-transgenic mice; OT-I mice express transgenic TCRα-V2 and TCRβ-V5 genes such that all CD8+ T cell receptors recognize chicken ovalbumin residues 257-264 ([…]) in the context of H-2Kb (Hogquist et al., 1994 Cell, 76:17-27). Target cell-T cell cultures were incubated with compounds for 48 hr and then analyzed by dual-luciferase assay whereby changes in firefly signal relative to controls indicated modulation of T cell killing by compound treatment (FIG. 2B and FIG. 2C).\nA high-throughput assay capable of identifying test compounds that specifically impaired or enhanced CD8^+ T cell-mediated killing of target ID8-lucOS “clone B9” cells in an antigen-specific manner was developed, as depicted in FIG. 2B. In such assays, a 96-well tissue culture plate array format was employed, and in each well, 10,000 ID8-lucOS and 10,000 ID8-rluc were co-plated. […] The OT-I assay was then performed as a high-throughput screen (FIG. 2C) to evaluate test compounds for immunomodulatory effects upon antigen-specific tumor cell killing by cytotoxic T lymphocytes (CTLs). Inclusion of ID8-lucOS and ID8-rluc in each well of the array-formatted test compound assay provided in-plate normalization controls, which allowed for identification of test compounds that effected non-specific growth inhibition or induction of apoptosis, versus identification of modulation by screen compounds of antigen-specific tumor cell killing by cytotoxic T lymphocytes. Such high-throughput screening was performed under standard ID8 cell growth conditions (37° C. and 5% 02) for initial rounds of test compound screening. […]"}, "[2]": {"test_system": "IFN-γ secretion by OT-I CD8+ T cells", "assay": "OT-I IFN-γ ELISA", "assay_type": "cell-based, mouse", "settings": "supernatants at 48 hr; 100, 50, 10, 5, 1 nM; E:T 1:1 and 2:1", "description": "The supernatants from OT-I CTL assays, as described above, were harvested at the 48 hr timepoint prior to dual luciferase assay and analyzed for IFN-γ secretion by LEGEND MAX™ Mouse IFN-γ ELISA Kit (Biolegend, San Diego, Calif.) according to the manufacturer's protocol. […] Conditions were assayed with four replicate wells per experiment.\nCell culture media from the OT-I IO assay was harvested from wells following 48 hr of culture with a range of EGFR inhibitors and the JAK2 inhibitor AZD-1480 and assessed for IFN-γ levels by ELISA. Secretion of IFN-γ was used as a proxy for OT-I T cell effector function. […] None of the EGFR inhibitors affected IFN-γ secretion, leading to the conclusion that the immunomodulatory effect of EGFR inhibition in the assay was not due to T cell-intrinsic effects."}, "[3]": {"test_system": "OVA-expressing KP cells (Kras^G12D/p53^−/− lung adenocarcinoma) co-cultured with OT-I CD8+ T cells", "settings": "KP-Cas9 lucOS cells co-cultured with OT-I CD8+ T cells", "text": "The KP cell line was transduced with the same vectors to stably express Cas9 and the lusOS construct and co-cultured with OT-I CD8+ T cells."}, "[4]": {"test_system": "MHC class-I (H-2K^b) on ID8 tumor cells", "assay": "Flow cytometry of MHC class-I expression, ID8", "assay_type": "cell-based, mouse", "settings": "100 nM, 48 hr, vs DMSO; for basal expression of MHC class-I by ID8 tumor cells: no IFN-γ; for MHC class-I expression induced by physiological levels of IFN-γ, ID8 tumor cells: with recombinant mouse IFN-γ", "description": "100,000 ID8-lucOS, ID8-lucOS sgEGFR KO, Kras^G12D;p53^−/−, and MC38 cell lines were cultured in 12-well plates in 2 mL of culture media (DMEM+10% FBS+pen/strep) alone or supplemented with 4 ng/mL recombinant mouse IFN-γ (Biolegend, San Diego, Calif.) for 48 hr. […] Data were analyzed using FlowJo (Ashland, Oreg.) software version 10.0.9."}, "MC38 colon cancer cells": {"test_system": "MC38 colon cancer cells", "assay_type": "in vivo", "settings": "log-rank Mantel-Cox", "method": "C57BL/6J stock #000664 mice (Jackson labs, Bar Harbor, Me.) were challenged subcutaneously with 500,000 MC38 colon cancer cells on their flanks and “enrolled” on-study when tumors reached 50 mm^3. […] Depleting aCD8α was administered two days prior to first aPD-1 treatment. Mice used in experiments were 7-8 weeks of age at time of tumor challenge. Endpoint was considered to be when tumors reached a size of 2000 mm^3 or as mandated by institutional guidelines due to development of necrotic lesions.\nSpecifically, for each of the experiments, C57BL/6J mice were challenged subcutaneously with 500,000 MC38 colon cancer cells on their flanks and “enrolled” on-study when tumors reached 50 mm^3. […] Flank tumor growth curves were analyzed using two-way ANOVA, bar graphs were analyzed using unpaired Student's t-test, and survival experiments used the log-rank Mantel-Cox test for survival analysis, all indicated with *p<0.05; **p<0.01; ***p<0.001."}, "r/m SCCHN": {"test_system": "r/m SCCHN", "settings": "r/m SCCHN patients; cited from earlier work"}, "[5]": {"biological_target": "chicken ovalbumin residues 257-264 (SIINFEKL) in the context of H-2Kb, presented on ID8-lucOS cells (mouse; chicken)", "assay": "cell-based or functional assay"}}, "data": [{"molecule": "O=C(O)c1ccc(Nc2ncc3c(n2)-c2ccc(Cl)cc2C(c2c(F)cccc2F)=NC3)cc1", "note": "[MLN8054]", "values": [{"measurement": "effect on OT-I T cell-mediated target cell lysis (normalized firefly/renilla luciferase ratio relative to DMSO)", "setting": "[1]", "value": "inhibited T cell-mediated target cell lysis"}]}, {"molecule": "C#Cc1cccc(Nc2ncnc3cc(OCCOC)c(OCCOC)cc23)c1", "note": "[erlotinib]", "values": [{"measurement": "IFN-γ secretion (ELISA)", "setting": "[2]", "value": "did not appear to exert any enhancing effect"}, {"measurement": "OT-I T cell-mediated lysis of OVA-expressing KP cells", "setting": "[3]", "value": "significantly enhanced"}, {"measurement": "effect on OT-I T cell killing of ID8-lucOS target cells, dose-response validation", "setting": "[1]", "value": "confirmed to augment T cell-mediated tumor cell lysis"}, {"measurement": "effect on OT-I T cell-mediated target cell lysis (normalized firefly/renilla luciferase ratio relative to DMSO)", "setting": "[1]", "value": "significantly augmented T cell killing"}, {"measurement": "basal expression of MHC class-I by ID8 tumor cells", "setting": "[4]", "value": "significantly increased"}, {"measurement": "MHC class-I expression induced by physiological levels of IFN-γ, ID8 tumor cells", "setting": "[4]", "value": "significantly increased"}]}, {"molecule": "COc1cc2ncnc(Nc3ccc(F)c(Cl)c3)c2cc1OCCCN1CCOCC1", "note": "[gefitinib]", "values": [{"measurement": "IFN-γ secretion (ELISA)", "setting": "[2]", "value": "did not appear to exert any enhancing effect"}, {"measurement": "OT-I T cell-mediated lysis of OVA-expressing KP cells", "setting": "[3]", "value": "significantly enhanced"}, {"measurement": "effect on OT-I T cell killing of ID8-lucOS target cells, dose-response validation", "setting": "[1]", "value": "significantly augmented OT-I T cell killing"}, {"measurement": "basal expression of MHC class-I by ID8 tumor cells", "setting": "[4]", "value": "significantly increased"}, {"measurement": "MHC class-I expression induced by physiological levels of IFN-γ, ID8 tumor cells", "setting": "[4]", "value": "significantly increased"}]}, {"molecule": "O=c1sn(-c2cccc3ccccc23)c(=O)n1Cc1ccccc1", "note": "[tideglusib]", "values": [{"measurement": "effect on OT-I T cell killing of ID8-lucOS target cells, dose-response validation", "setting": "[1]", "value": "only mildly immunomodulatory"}]}, {"molecule": "CN(C)C/C=C/C(=O)Nc1cc2c(Nc3ccc(F)c(Cl)c3)ncnc2cc1O[C@H]1CCOC1", "note": "[afatinib]", "values": [{"measurement": "IFN-γ secretion (ELISA)", "setting": "[2]", "value": "did not appear to exert any enhancing effect"}, {"measurement": "OT-I T cell-mediated lysis of OVA-expressing KP cells", "setting": "[3]", "value": "significantly enhanced"}, {"measurement": "lysis of OVA-expressing ID8 target cells", "setting": "[1]; concentrations down to 10 nM", "value": "lysis of almost all OVA-expressing ID8 target cells"}, {"measurement": "effect on OT-I T cell killing of ID8-lucOS target cells, dose-response validation", "setting": "[1]", "value": "significantly augmented OT-I T cell killing"}, {"measurement": "survival relative to controls", "setting": "MC38 colon cancer cells", "value": "none"}, {"measurement": "basal expression of MHC class-I by ID8 tumor cells", "setting": "[4]", "value": "significantly increased"}, {"measurement": "MHC class-I expression induced by physiological levels of IFN-γ, ID8 tumor cells", "setting": "[4]", "value": "significantly increased"}, {"measurement": "reported ORR to monotherapy", "setting": "r/m SCCHN", "value": 10, "unit": "%"}]}, {"molecule": "OT-I transgenic T cell receptor (TCRα-V2 / TCRβ-V5) on OT-I CD8+ T cells", "values": [{"measurement": "% killing of OVA-expressing ID8-lucOS target cells (dual-luciferase assay, 48 hr)", "setting": "[5]", "value": 50, "unit": "% killing"}]}, {"molecule": "O=C1Nc2cc(Br)ccc2C1=C1Nc2ccccc2C1=O", "note": "[6-bromoindirubin]", "values": [{"measurement": "effect on OT-I T cell killing of ID8-lucOS target cells, dose-response validation", "setting": "[1]", "value": "only modestly augmented T cell killing"}, {"measurement": "effect on OT-I T cell-mediated target cell lysis (normalized firefly/renilla luciferase ratio relative to DMSO)", "setting": "[1]", "value": "significantly augmented T cell killing"}]}, {"molecule": "COc1cc(OC)c(/C=C/S(=O)(=O)Cc2ccc(OC)c(NCC(=O)O)c2)c(OC)c1", "note": "[Rigosertib]", "values": [{"measurement": "effect on OT-I T cell-mediated target cell lysis (normalized firefly/renilla luciferase ratio relative to DMSO)", "setting": "[1]", "value": "inhibited T cell-mediated target cell lysis"}]}, {"molecule": "O=C1Nc2ccccc2/C1=C1/Nc2ccccc2C1=O", "note": "[indirubicin]", "values": [{"measurement": "effect on OT-I T cell killing of ID8-lucOS target cells, dose-response validation", "setting": "[1]", "value": "only mildly immunomodulatory"}]}, {"molecule": "pembrolizumab", "values": [{"measurement": "reported ORR to monotherapy", "setting": "r/m SCCHN", "value": 16, "unit": "%"}]}, {"molecule": "Cc1cc(Nc2nc(N[C@@H](C)c3ncc(F)cn3)ncc2Cl)n[nH]1", "note": "[AZD-1480]", "values": [{"measurement": "IFN-γ secretion (ELISA)", "setting": "[2]", "value": "significantly inhibited IFN-γ secretion in a dose-dependent manner"}, {"measurement": "effect on OT-I T cell killing of ID8-lucOS target cells, dose-response validation", "setting": "[1]", "value": "significantly inhibited T cell killing"}, {"measurement": "effect on OT-I T cell-mediated target cell lysis (normalized firefly/renilla luciferase ratio relative to DMSO)", "setting": "[1]", "value": "inhibited T cell-mediated target cell lysis"}]}, {"molecule": "CC(C)(C)c1cnc(CSc2cnc(NC(=O)C3CCNCC3)s2)o1", "note": "[SNS-032]", "values": [{"measurement": "effect on OT-I T cell-mediated target cell lysis (normalized firefly/renilla luciferase ratio relative to DMSO)", "setting": "[1]", "value": "inhibited T cell-mediated target cell lysis"}]}, {"molecule": "C=CC(=O)Nc1cc(Nc2nccc(-c3cn(C)c4ccccc34)n2)c(OC)cc1N(C)CCN(C)C", "note": "[osimertinib]", "values": [{"measurement": "effect on OT-I T cell killing of ID8-lucOS target cells, dose-response validation", "setting": "[1]", "value": "modestly enhanced killing"}]}, {"molecule": "CN1C(=O)c2ccccc2N(C)c2nc(Nc3ccc(N4CCC(O)CC4)cc3)ncc21", "note": "[XMD-12-1]", "values": [{"measurement": "effect on OT-I T cell-mediated target cell lysis (normalized firefly/renilla luciferase ratio relative to DMSO)", "setting": "[1]", "value": "inhibited T cell-mediated target cell lysis"}]}]}
